{"source": "patent US20060270589A1", "about": "“Carotenoids, carotenoid analogs, or carotenoid derivatives for the treatment of visual disabilities” (priority 2005, published 2006)", "key": {"[1]": {"test_system": "superoxide anion generation from phorbol-ester (PMA)-stimulated PMNs", "experiment": "Direct superoxide anion scavenging by EPR spectroscopy (DEPMPO spin-trap) in isolated human neutrophil assay", "assay_type": "cell-based", "conditions": "40% EtOH, 0.1 mM; EtOH vehicle background 5%; listed as lutein diphosphate, sodium salt", "procedure": "Human polymorphonuclear leukocytes (PMNs) were isolated from freshly sampled venous blood of a single volunteer by Percoll density gradient centrifugation as described previously. Briefly, each 10 mL of whole blood was mixed with 0.8 mL of 0.1 M EDTA and 25 mL saline. The diluted blood was then layered over 9 mL Percoll at a specific density of 1.080 g/mL. After centrifugation at 400 g for 20 min at 20° C., the plasma, mononuclear cell, and Percoll layers were removed. Erythrocytes were subsequently lysed by addition of 18 mL ice-cold water for 30 s, followed by 2 mL of 10× PIPES buffer (25 mM PIPES, 110 mM NaCl, and 5 mM KCl, titrated to pH 7.4 with NaOH). […] Afterward, PMNs were counted by light microscopy on a hemocytometer. […]\nAll EPR measurements were performed using a Bruker ER 300 EPR spectrometer operating at X-band with a TM110 cavity as previously described. The microwave frequency was measured with a Model 575 microwave counter (EIP Microwave, Inc., San Jose, Calif.). […]\nInstrument settings used in the spin-trapping experiments were as follows: modulation amplitude, 0.32 G; time constant, 0.16 s; scan time, 60 s; modulation frequency, 100 kHz; microwave power, 20 mW; and microwave frequency, 9.76 GHz. The samples were placed in a quartz EPR .at cell, and spectra were recorded. The component signals in the spectra were identified and quantified as reported previously."}, "[2]": {"assay_type": "physicochemical", "procedure": "(§1) 30.13 mg of 3 was added to 1 mL USP-purified water. The sample was rotated for 2 h and then centrifuged for 5 min. After centrifuging, solid was visible in the bottom of the tube. A 125 μL aliquot of the solution was then diluted to 25 mL. The sample was analyzed by UV/Vis spectroscopy at 436 nm, and the absorbance was compared to a standard curve compiled from four standards of known concentration. The concentration of the original supernatant was calculated to be 2.85 mg/mL and the absorptivity was 36.94 AU mL/cm mg. Slight error may have been introduced by the small size of the original aliquot.\nas §1, with “Next, 30.80” for “30.13”, “8” for “3”, “411” for “436”, “29.27” for “2.85”, “2.90” for “36.94”"}}}
{"substance": "3,3′-Diphosphoryloxy-β,ε-carotene sodium salt [Compound 8]", "values": [{"measurement": "Mean (% inhibition) of superoxide anion signal", "setting": "[1]", "result": "(mean % inhibition = 18%) was increased above background scavenging (5%)"}, {"measurement": "Increase in aqueous dispersibility versus the disuccinate sodium salt", "setting": "[2]", "result": "> 10", "unit": "fold"}]}
